Patent US20240245703A1, “TOPICAL APPLICATION OF AGENTS TO REDUCE SUN SENSITIVITY AND IMPROVE TOPICAL PHOTODYNAMIC THERAPY” (Wright State University, priority 2021, published 2024)

What was measured:
HaCaT keratinocytes = assay: PDT (5-ALA + blue light) MVP release in HaCaT keratinocytes; type: cell-based, human; set-up: PDT-induced MVP release: dose or concentration left out as unconfirmed; conditions: HaCaT keratinocytes, imipramine added immediately after PDT, supernatants 4 h
Experimental: PDT results in acute cellular destruction and inflammation and photosensitivity, as well as delayed immunosuppression. […] Thus, it was of further interest whether experimental PDT of HaCaT keratinocytes generated MVP in vitro. To that end, HaCaT cells were pretreated with 5-ALA alone, or blue light alone, or a 4 hour incubation of 5-ALA in the dark followed by various fluences of blue light, and MVP were measured in the supernatants at 4 hours post blue light. 100 nM CPAF and TPA were used as positive controls for MVP release.
For the data shown in FIG. 14, HaCaT keratinocytes were treated with sham (no treatment), 0.1% ethanol vehicle control (VEH), 100 nM TPA, 100 nM CPAF, 1 mM 5-ALA for 4 hours, or 5-ALA followed by various fluences (2.5-20 J/cm^2) of blue light or blue light alone. Levels of MVPs released into supernatants were measured at 4 hours. […] For the data shown in FIG. 15, human skin explants were treated with sham, 100 μL vehicle (90% ethanol+10% DMSO) (VEH), 1 μM TPA, 1 µM CPAF, 1 mM 5-ALA for 4 hours, blue light or 5-ALA+blue light at 20 J/cm^2. After four hours, duplicate 6-mm punch biopsies were obtained, weighed, and MVPs were measured. The data are the mean±SE from 3-4 separate experiments conducted in duplicate. * Denotes statistically significant (P <0.05) changes from sham values.
Supernatants were collected at 4 hours and MVP measured. The data are the mean±SE MVP fold change from sham-treated values. For the data shown in FIG. 17, human skin explants were treated as in FIG. 15, with the exception that in some experiments 100 μL of 5 mM IMIP was added post-PDT. MVP were measured in duplicate 6-mm punch biopsies obtained 4 hours post-treatment.

UVB-induced MVP release = assay: MVP release after localized UVB irradiation of volar forearm of human subjects; type: in vivo; conditions: human photosensitive vs normal subjects, 1 KJ/m^2 UVB, 4% imipramine immediately after, biopsies 4 h
Source text: FIG. 22A compares normal subjects to subjects who have active photosensitivity disorders as denoted by positive screening. […] The individual data points are shown in FIG. 22A with the mean±SE of the groups for the UVB+vehicle for the normal and photosensitive subjects.

UVB-induced erythema = assay: UVB-induced skin erythema (Mexameter) in wild-type and XPA KO mice; type: in vivo; conditions: WT and XPA KO mice, 5 kJ/m^2 UVB, 100 μL 500 μM topical immediately after, 4 h; effect most noted in XPA KO
Experimental: Erythema was measured by a Mexameter® device (Courage+Khazaka electronic GmbH, Cologne, Germany) before treatment and after 4 hours of treatment. […] UVB-induced skin inflammation involves many cytokines including interleukin-6 (IL-6) and tumor necrosis factor-alpha (TNFα).
Groups of 6-8 mice underwent erythema measurements with a Mexameter® device before irradiation with various fluences (1.0, 2.5, and 5.0 kJ/m^2) of UVB or no UVB (sham), and four hours later erythema was measured to determine the cutaneous erythema and cytokine responses of UVB irradiation on wild-type vs XPA KO mice. Similarly, triplicate skin biopsies were obtained and mRNA isolated, and quantitative reverse transcription polymerase chain reaction (qRT-PCR) used to quantify mRNA levels of cytokines TNF ? and IL-6. The housekeeping gene GAPDH was used as control. […] The data is shown as the mean±S.E. of fold change in baseline erythema levels. * Denotes statistically significant (P<0.05) differences between UVB- and sham-treated mice. #Denotes statistically significant (P<0.05) differences between XPA KO and wild-type erythema responses.
The data is shown as the mean±S.E. of fold change in baseline erythema levels. * Denotes statistically significant (P<0.05) differences between UVB- and sham-treated mice

[1] = hairless mice, effect of propylene glycol; cited from earlier work
PDT-induced MVP release = PDT-induced MVP release in skin and plasma of mice; type: in vivo; conditions: wild-type mice, PDT 20 J/cm^2 blue light, 100 μl of 5 mM topical immediately after, 4 h
Experimental: Next, the role of PAF and aSMase in PDT-induced MVP release was assessed. […] Next, the ability of topical PDT to generate MVP in vivo in mice, and the role of aSMase in this process, was determined. […] Two approaches were used to determine if PDT-induced MVP involved aSMase.
The role of aSMase in PDT-mediated MVP release was evaluated in a murine system. For the data shown in FIG. 18, wild-type mice were treated with either sham, 100 μl of 5 mM IMIP, or 90% polyethylene glycol: 10% DMSO vehicle, or 1 μM TPA (as a positive control for MVP release), or PDT using 20 J/cm^2 blue light. Immediately following PDT, the treated areas were given vehicle or imipramine. At 4 hours post-treatment, the mice were euthanized and MVP were measured from duplicate 6-mm punch biopsies and plasma. The data are mean±SD fold increase in MVP normalized to tissue weight/plasma volume. * Denotes statistically significant (P<0.05) changes from sham; #statistically significant (P<0.05) changes from comparator denoted by line by two-way ANOVA; NS not statistically significant.
To confirm the role of aSMase in PDT-induced MVP generation, PDT effects were evaluated in the absence of aSMase was evaluated in a murine system. For the data shown in FIG. 19, wild-type or aSMase-deficient (Smpd1−/−) mice underwent sham or PDT using 20 J/cm^2 blue light. At 4 hours post-treatment, the mice were euthanized and MVP were measured from duplicate 6-mm punch biopsies and plasma. The data are mean±SD fold increase in MVP normalized to tissue weight/plasma volume. * Denotes statistically significant (P<0.05) changes from sham; NS not statistically significant.

CN(C)CCCN1c2ccccc2CCc2ccccc21 [Imipramine]
PDT-induced MVP release (HaCaT keratinocytes): blocked PDT-induced MVP release | UVB-induced MVP release in forearm skin (UVB-induced MVP release): blocks the increased MVP release selectively in the photosensitive subjects | UVB-induced erythema response (UVB-induced erythema): blocked the erythema responses | absorption with propylene glycol [1]: enhances absorption | PDT-induced MVP release in skin and plasma (PDT-induced MVP release): blocked MVP release
